Source: patent US8273716B2, “Use of LHRH antagonists for intermittent treatments” (Spectrum Pharmaceuticals, Inc., priority 2008, dated 2012)

Experiments:
[1] = in vivo; cited from earlier work
LHRH receptor = LHRH receptor (Homo sapiens, UniProt P30968); settings: Cho N et al., J. Med. Chem. 1998; cited from earlier work
study subjects = test: Treatment of study subjects with peroral daily doses according to intermittent administration schemes; type: in vivo, human; settings: same doses and administration schemes; 50-150 mg perorally daily as a single dose
Method: (§1) Study subjects are treated with compound (76) with the following doses according to the following administration schemes: • in a 3 month trial, 75 mg or 150 mg compound (76) administered perorally daily as a single dose on day 2-7 of the menstrual cycle • in a 3 months trial, 75 mg, 100 mg or 150 mg compound (76) administered perorally daily as a single dose on day 2-7 of the menstrual cycle followed by a 3 months treatment-free period • in a 6 months trial, 75 mg or 150 mg compound (76) administered perorally daily as a single dose • 50 mg or 150 mg per compound (76) administered daily as a single dose over 42 days (6 weeks)
as §1, with “(68)” for “(76)”
as §1, with “36” for “(76)”
as §1, with “37” for “(76)”
as §1, with “52” for “(76)”
as §1, with “144” for “(76)”, “weeks) […]” for “weeks)”

LHRH receptor, sequence (P30968 whole entry): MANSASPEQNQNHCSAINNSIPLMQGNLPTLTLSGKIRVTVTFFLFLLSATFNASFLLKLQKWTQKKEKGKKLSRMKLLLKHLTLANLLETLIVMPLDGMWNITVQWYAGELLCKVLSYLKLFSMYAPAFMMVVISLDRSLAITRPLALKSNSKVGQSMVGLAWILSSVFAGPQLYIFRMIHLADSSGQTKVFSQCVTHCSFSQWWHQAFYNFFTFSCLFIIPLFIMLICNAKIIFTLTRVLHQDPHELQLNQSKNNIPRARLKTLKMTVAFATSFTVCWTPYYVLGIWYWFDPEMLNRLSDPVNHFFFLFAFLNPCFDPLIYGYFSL

Structure (SMILES)	prevention of chemical (hormonal) castration (study subjects)	bioavailability [1]	receptor affinity (LHRH receptor)
CC(C)OC(=O)c1cn(Cc2c(F)cccc2F)c2sc(-c3ccc(NC(=O)C(C)C)cc3)c(CN(C)Cc3ccccc3)c2c1=O [T-98475]		low	high
CCC(C)[C@H](NC(=O)Cc1ccccc1F)C(=O)N[C@]1(C(=O)N[C@H](C(N)=S)C(C)CC)CCc2[nH]c3c(C(F)(F)F)cccc3c2C1 (stereo partly drawn) [compound (76), (R)-3-{(S)-2-[2-(2-fluorophenyl)acetylamino]-3-methylpentanoylamino}-8-trifluoro-methyl-2,3,4,9-tetrahydro-1H-carbazole-3-carboxylic acid ((S)-2-methyl-1-thio-carbamoylbutyl)amide]	successfully prevented		
CCC(C)[C@H](NC(=O)Cc1ccccc1F)C(=O)N[C@]1(C(=O)N[C@H](C(N)=S)C(C)CC)CCc2[nH]c3c(Cl)cc(F)cc3c2C1 (some centres unmarked) [compound (68)]	successfully prevented		

Now from value to molecule, other results behind:

prevention of chemical (hormonal) castration (study subjects)	Structure (SMILES)	bioavailability [1]	receptor affinity (LHRH receptor)
successfully prevented	CCC(C)[C@H](NC(=O)Cc1ccccc1F)C(=O)N[C@]1(C(=O)N[C@H](C(=S)NCN2CCOCC2)C(C)CC)CCc2[nH]c3c(C(F)(F)F)cccc3c2C1 (stereo partly drawn) [Compound 37, (R)-3-{(S)-2-[2-(2-Fluoro-phenyl)-acetylamino]-3-methyl-pentanoylamino}-8-trifluoromethyl-2,3,4,9-tetrahydro-1H-carbazole-3-carboxylic acid {(S)-2-methyl-1-[(morpholin-4-ylmethyl)-thiocarbamoyl]-butyl}-amide]		
successfully prevented	CCC(C)[C@H](NC(=O)Cc1ccccc1F)C(=O)N[C@]1(C(=O)N[C@H](C(=S)NCC2CCOCC2)C(C)CC)CCc2[nH]c3c(C(F)(F)F)cccc3c2C1 (stereo partly drawn) [Compound 52, (R)-3-{(S)-2-[2-(2-Fluoro-phenyl)-acetylamino]-3-methyl-pentanoylamino}-8-trifluoromethyl-2,3,4,9-tetrahydro-1H-carbazole-3-carboxylic acid {(S)-2-methyl-1-[(tetrahydro-pyran-4-ylmethyl)-thiocarbamoyl]-butyl}-amide]		
successfully prevented	CCC(C)[C@H](NC(=O)Cc1ccccc1F)C(=O)N[C@]1(C(=O)N[C@H](C(=O)NNc2ccccc2)C(C)CC)CCc2[nH]c3c(C(F)(F)F)cccc3c2C1 (stereo partly drawn) [Compound 144, (R)-3-{(S)-2-[2-(2-Fluoro-phenyl)-acetylamino]-3-methyl-pentanoylamino}-8-trifluoromethyl-2,3,4,9-tetrahydro-1H-carbazole-3-carboxylic acid [(S)-2-methyl-1-(N′-phenyl-hydrazinocarbonyl)-butyl]-amide]		
successfully prevented	CCC(C)[C@H](NC(=O)Cc1ccccc1F)C(=O)N[C@]1(C(=O)N[C@H](C(=O)NCN2CCOCC2)C(C)CC)CCc2[nH]c3c(C(F)(F)F)cccc3c2C1 (stereo partly drawn) [Compound 36, (R)-3-{(S)-2-[2-(2-Fluoro-phenyl)-acetylamino]-3-methyl-pentanoylamino}-8-trifluoromethyl-2,3,4,9-tetrahydro-1H-carbazole-3-carboxylic acid {(S)-2-methyl-1-[(morpholin-4-ylmethyl)-carbamoyl]-butyl}-amide]		
